In patent US9708314B2, “Heterocyclic amide compound” (NISSAN CHEMICAL INDUSTRIES, LTD., priority 2013, dated 2017):

Tests used:
Assay type in all cases: in vivo
[1] = system: Echinochloa oryzacola Vasing.; assay: Test Example 1: herbicidal activity, application before weed generation in submerged conditions; conditions: Application herbicide amount 320 g/ha; Seventeenth Table
In short: (§1)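 Pre-emergence water-surface application under 4 cm flooding, same day as sowing, with rice transplanted at 2.5 leaf stage. Dose given as g/ha. Plants grown at 25° C. to 30° C. and rated three weeks later on a 0 (≤5%) to 5 (≥90%) herbicidal-ratio scale.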

Monochoria vaginalis = assay: as above; conditions: Application herbicide amount 320 g/ha; Seventeenth Table
In short: as §1

Scirpus juncoides = assay: as above; conditions: Application herbicide amount 320 g/ha; Seventeenth Table
In short: as §1

[2] = system: transplanted Oryza sativa; assay: Test Example 1: effect on crop, application before weed generation in submerged conditions; conditions: Application herbicide amount 320 g/ha; Seventeenth Table
In short: as §1

Abutilon theophrasti = assay: Test Example 4: herbicidal effect by application to foliage (diluvial soil, plastic box); conditions: Application herbicide amount 320 g/ha
In short: (§2)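 Seeds sown in sterilized diluvial soil, covered ~1.5 cm, grown 14 days in greenhouse at 25° C. to 30° C. Emulsion formulation diluted in water to set rate (g/ha) and sprayed onto stems and leaves. Effect scored visually 3 weeks later on 0–5 scale (5 = ≥90% herbicidal ratio, 0 = ≤5%).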

Alopecurus myosuroides = assay: as above; conditions: Application herbicide amount 320 g/ha
In short: as §2

Apera spica-venti. = assay: as above; conditions: Application herbicide amount 320 g/ha
In short: as §2

Avena fatua = assay: as above; conditions: Application herbicide amount 320 g/ha
In short: as §2

Chenopodium album = assay: as above; conditions: Application herbicide amount 320 g/ha
In short: as §2

Digitaria ciliaris = assay: as above; conditions: Application herbicide amount 320 g/ha
In short: as §2

[3] = system: Echinochloa crus-galli var. crus-galli; assay: as above; conditions: Application herbicide amount 320 g/ha
In short: as §2

Galium spurium = assay: as above; conditions: Application herbicide amount 320 g/ha
In short: as §2

Lolium multiflorum Lam. = assay: as above; conditions: Application herbicide amount 320 g/ha
In short: as §2

Setaria viridis = assay: as above; conditions: Application herbicide amount 320 g/ha
In short: as §2

Veronica persica = assay: as above; conditions: Application herbicide amount 320 g/ha
In short: as §2

SMILES	A: Echinochloa oryzicola Vasing. (herbicidal effect grade) [1]	C: Monochoria vaginalis (herbicidal effect grade) (Monochoria vaginalis)	B: Scirpus juncoides (herbicidal effect grade) (Scirpus juncoides)	a: transplanted Oryza sativa (effect on crop grade) [2]	M (Abutilon theophrasti)	J (Alopecurus myosuroides)	L (Apera spica-venti.)	I (Avena fatua)	O (Chenopodium album)	F (Digitaria ciliaris)	H [3]	Q (Galium spurium)	K (Lolium multiflorum Lam.)	G (Setaria viridis)	R (Veronica persica)
Cc1nnc(NC(=O)c2ccc(C(F)(F)F)n3c(Nc4ccccc4)nnc23)o1 [1-082]	3 (Herbicidal ratio of 40% or more and less than 70%)	2 (Herbicidal ratio of 20% or more and less than 40%)	2 (Herbicidal ratio of 20% or more and less than 40%)	0 (Herbicidal ratio of 5% or less (almost no effect))	4 (Herbicidal ratio of 70% or more and less than 90%)	0 (Herbicidal ratio of 5% or less (almost no effect))	1 (Herbicidal ratio of 5% or more and less than 20%)	0 (Herbicidal ratio of 5% or less (almost no effect))	5 (Herbicidal ratio of 90% or more (almost completely withered))	4 (Herbicidal ratio of 70% or more and less than 90%)	4 (Herbicidal ratio of 70% or more and less than 90%)	0 (Herbicidal ratio of 5% or less (almost no effect))	1 (Herbicidal ratio of 5% or more and less than 20%)	3 (Herbicidal ratio of 40% or more and less than 70%)	4 (Herbicidal ratio of 70% or more and less than 90%)
CSCCc1nnc2c(C(=O)Nc3nnc(C)o3)ccc(C(F)(F)F)n12 [1-083]	2 (Herbicidal ratio of 20% or more and less than 40%)	3 (Herbicidal ratio of 40% or more and less than 70%)	3 (Herbicidal ratio of 40% or more and less than 70%)	0 (Herbicidal ratio of 5% or less (almost no effect))	5 (Herbicidal ratio of 90% or more (almost completely withered))	0 (Herbicidal ratio of 5% or less (almost no effect))	0 (Herbicidal ratio of 5% or less (almost no effect))	3 (Herbicidal ratio of 40% or more and less than 70%)	5 (Herbicidal ratio of 90% or more (almost completely withered))	5 (Herbicidal ratio of 90% or more (almost completely withered))	5 (Herbicidal ratio of 90% or more (almost completely withered))	4 (Herbicidal ratio of 70% or more and less than 90%)	1 (Herbicidal ratio of 5% or more and less than 20%)	5 (Herbicidal ratio of 90% or more (almost completely withered))	4 (Herbicidal ratio of 70% or more and less than 90%)
Cc1nnc(NC(=O)c2ccc(C(F)(F)F)n3c(CC[S+](C)[O-])nnc23)o1 (stereo not drawn) [1-084]	2 (Herbicidal ratio of 20% or more and less than 40%)	2 (Herbicidal ratio of 20% or more and less than 40%)	3 (Herbicidal ratio of 40% or more and less than 70%)	0 (Herbicidal ratio of 5% or less (almost no effect))	5 (Herbicidal ratio of 90% or more (almost completely withered))	0 (Herbicidal ratio of 5% or less (almost no effect))	0 (Herbicidal ratio of 5% or less (almost no effect))	3 (Herbicidal ratio of 40% or more and less than 70%)	5 (Herbicidal ratio of 90% or more (almost completely withered))	5 (Herbicidal ratio of 90% or more (almost completely withered))	5 (Herbicidal ratio of 90% or more (almost completely withered))	4 (Herbicidal ratio of 70% or more and less than 90%)	0 (Herbicidal ratio of 5% or less (almost no effect))	5 (Herbicidal ratio of 90% or more (almost completely withered))	5 (Herbicidal ratio of 90% or more (almost completely withered))
Cc1nnc(NC(=O)c2ccc(C(F)(F)F)n3c(N(C)c4ccccc4)nnc23)o1 [1-086]	5 (Herbicidal ratio of 90% or more (almost completely withered))	4 (Herbicidal ratio of 70% or more and less than 90%)	4 (Herbicidal ratio of 70% or more and less than 90%)	5 (Herbicidal ratio of 90% or more (almost completely withered))	5 (Herbicidal ratio of 90% or more (almost completely withered))	0 (Herbicidal ratio of 5% or less (almost no effect))	0 (Herbicidal ratio of 5% or less (almost no effect))	0 (Herbicidal ratio of 5% or less (almost no effect))	5 (Herbicidal ratio of 90% or more (almost completely withered))	5 (Herbicidal ratio of 90% or more (almost completely withered))	5 (Herbicidal ratio of 90% or more (almost completely withered))	1 (Herbicidal ratio of 5% or more and less than 20%)	0 (Herbicidal ratio of 5% or less (almost no effect))	4 (Herbicidal ratio of 70% or more and less than 90%)	4 (Herbicidal ratio of 70% or more and less than 90%)
Cc1nnc(NC(=O)c2ccc(C(F)(F)F)n3c(NC(C)C)nnc23)o1 [1-090]	3 (Herbicidal ratio of 40% or more and less than 70%)	2 (Herbicidal ratio of 20% or more and less than 40%)	4 (Herbicidal ratio of 70% or more and less than 90%)	0 (Herbicidal ratio of 5% or less (almost no effect))	3 (Herbicidal ratio of 40% or more and less than 70%)	1 (Herbicidal ratio of 5% or more and less than 20%)	1 (Herbicidal ratio of 5% or more and less than 20%)	3 (Herbicidal ratio of 40% or more and less than 70%)	5 (Herbicidal ratio of 90% or more (almost completely withered))	5 (Herbicidal ratio of 90% or more (almost completely withered))	5 (Herbicidal ratio of 90% or more (almost completely withered))	1 (Herbicidal ratio of 5% or more and less than 20%)	1 (Herbicidal ratio of 5% or more and less than 20%)	3 (Herbicidal ratio of 40% or more and less than 70%)	5 (Herbicidal ratio of 90% or more (almost completely withered))
CC(C)Sc1nnc2c(C(=O)Nc3nnco3)ccc(C(F)(F)F)n12 [1-091]	5 (Herbicidal ratio of 90% or more (almost completely withered))	5 (Herbicidal ratio of 90% or more (almost completely withered))	5 (Herbicidal ratio of 90% or more (almost completely withered))	0 (Herbicidal ratio of 5% or less (almost no effect))	5 (Herbicidal ratio of 90% or more (almost completely withered))	2 (Herbicidal ratio of 20% or more and less than 40%)	3 (Herbicidal ratio of 40% or more and less than 70%)	4 (Herbicidal ratio of 70% or more and less than 90%)	5 (Herbicidal ratio of 90% or more (almost completely withered))	5 (Herbicidal ratio of 90% or more (almost completely withered))	5 (Herbicidal ratio of 90% or more (almost completely withered))	4 (Herbicidal ratio of 70% or more and less than 90%)	3 (Herbicidal ratio of 40% or more and less than 70%)	5 (Herbicidal ratio of 90% or more (almost completely withered))	5 (Herbicidal ratio of 90% or more (almost completely withered))
CCC[S+]([O-])c1nnc2c(C(=O)Nc3nnc(C)o3)ccc(C(F)(F)F)n12 (stereo not drawn) [1-092]	5 (Herbicidal ratio of 90% or more (almost completely withered))	4 (Herbicidal ratio of 70% or more and less than 90%)	5 (Herbicidal ratio of 90% or more (almost completely withered))	3 (Herbicidal ratio of 40% or more and less than 70%)	4 (Herbicidal ratio of 70% or more and less than 90%)	1 (Herbicidal ratio of 5% or more and less than 20%)	1 (Herbicidal ratio of 5% or more and less than 20%)	2 (Herbicidal ratio of 20% or more and less than 40%)	5 (Herbicidal ratio of 90% or more (almost completely withered))	5 (Herbicidal ratio of 90% or more (almost completely withered))	5 (Herbicidal ratio of 90% or more (almost completely withered))	3 (Herbicidal ratio of 40% or more and less than 70%)	1 (Herbicidal ratio of 5% or more and less than 20%)	5 (Herbicidal ratio of 90% or more (almost completely withered))	5 (Herbicidal ratio of 90% or more (almost completely withered))
